Source: PMC7583847 (2020)

Experiments:
Experiment in all cases: UV melting at 260 nm
[1] = system: p(dAdT)2 (DNA, polymer) AT; details: Na+ (sodium cacodylate, I = 0.05 M); sodium cacodylate pH 7.0; r = [compound]/[polynucleotide] = 0.2; per base
[2] = system: pApU (RNA, polymer) A/U; details: Na+ (sodium cacodylate, I = 0.05 M); sodium cacodylate pH 7.0; r = [compound]/[polynucleotide] = 0.2; per base
[3] = system: polyAH+-polyAH+ (RNA, polymer, protonated adenines (pH 5)) A; details: Na+ (sodium cacodylate, I = 0.05 M); sodium cacodylate pH 5.0; r = 0.2; second transition of poly A-poly U (free Tm 80.1 °C); per base

| ΔTm [1] [°C] | ΔTm [2] [°C] | ΔTm [3] [°C] | SMILES |
| --- | --- | --- | --- |
| 1.1 ± 0.5 | 3.0 ± 0.5 | 1.0 ± 0.5 | COC(=O)C(Cc1cn(CCCCN2C=CC(=Cc3sc4ccc(Br)cc4[n+]3C)c3ccccc32)nn1)NC(=O)c1ccc(C(=O)NC(=N)N)[nH]1 (stereo not drawn) |
| 0.3 ± 0.5 | 1.0 ± 0.5 | 1.0 ± 0.5 | COC(=O)C(Cc1cn(CCCC[n+]2c(C=C3C=CN(C)c4ccccc43)sc3ccc(Br)cc32)nn1)NC(=O)c1ccc(C(=O)NC(=N)N)[nH]1 (stereo not drawn) |
